System: 425362-245-T-J1 tumor spheroids, viability % test/control
Experiment: Anticancer human tumor 425362-245-T-J1 patient-derived melanoma cell line growth inhibition
Details: spheroids with HUVEC and MSC; for IC50: curve of first compound; for viability, T/C: stronger effect = lower value
In short: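 Complex spheroids of malignant cells with endothelial cells and mesenchymal stem cells; agents alone or combined, from near clinical Cmax (or 10 microM if unknown) down in half-log steps, 0.25% DMSO final.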

[1] = second compound 30 pM, first compound 0.0316 µM
[2] = second compound 30 pM, first compound 0.1 µM
[3] = second compound 30 pM, first compound 0.316 µM
[4] = second compound 30 pM, first compound 1 µM
[5] = second compound 30 pM, first compound 3.16 µM
[6] = second compound 30 pM, first compound 10 µM
[7] = second compound 94.9 pM, first compound 0.0316 µM
[8] = second compound 94.9 pM, first compound 0.1 µM
[9] = second compound 94.9 pM, first compound 0.316 µM
[10] = second compound 94.9 pM, first compound 1 µM
[11] = second compound 94.9 pM, first compound 3.16 µM
[12] = second compound 94.9 pM, first compound 10 µM
[13] = second compound 0.0003 µM, first compound 0.0316 µM
[14] = second compound 0.0003 µM, first compound 0.1 µM
[15] = second compound 0.0003 µM, first compound 0.316 µM
[16] = second compound 0.0003 µM, first compound 1 µM
[17] = second compound 0.0003 µM, first compound 3.16 µM
[18] = second compound 0.0003 µM, first compound 10 µM
[19] = second compound 0.000949 µM, first compound 0.0316 µM
[20] = second compound 0.000949 µM, first compound 0.1 µM
[21] = second compound 0.000949 µM, first compound 0.316 µM
[22] = second compound 0.000949 µM, first compound 1 µM
[23] = second compound 0.000949 µM, first compound 3.16 µM
[24] = second compound 0.000949 µM, first compound 10 µM
[25] = second compound 0.003 µM, first compound 0.0316 µM
[26] = second compound 0.003 µM, first compound 0.1 µM
[27] = second compound 0.003 µM, first compound 0.316 µM
[28] = second compound 0.003 µM, first compound 1 µM
[29] = second compound 0.003 µM, first compound 3.16 µM
[30] = second compound 0.003 µM, first compound 10 µM
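Note: spheroids exposed to agents for 7 days.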
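Throughout, for viability, T/C: 100% = DMSO vehicle control viability.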

SMILES	IC50 (second compound 30 pM) [nM]	IC50 (second compound 94.9 pM) [nM]	IC50 (second compound 0.0003 µM) [nM]	IC50 (second compound 0.000949 µM) [nM]	IC50 (second compound 0.003 µM) [nM]	viability, T/C [1] [%]	viability, T/C [2] [%]	viability, T/C [3] [%]	viability, T/C [4] [%]	viability, T/C [5] [%]	viability, T/C [6] [%]	viability, T/C [7] [%]	viability, T/C [8] [%]	viability, T/C [9] [%]	viability, T/C [10] [%]	viability, T/C [11] [%]	viability, T/C [12] [%]	viability, T/C [13] [%]	viability, T/C [14] [%]	viability, T/C [15] [%]	further results
CC1COCCN1c1cc(-c2ccnn2C)c2ccnc(-c3ccn[nH]3)c2n1 (stereo not given) + COc1cc2c(cc1O)CCNC21CSC2c3c(OC(C)=O)c(C)c4c(c3C(COC1=O)N1C(O)C3Cc5cc(C)c(OC)c(O)c5C(C21)N3C)OCO4	< 31.6	< 31.6	< 31.6	< 31.6	< 31.6	31.8	7.92	5.31	5.63	6.73	7.04	17.9	5	4.08	3.64	5.29	5.35	2.05	1.46	1.47	viability, T/C [16]: 1.57%; viability, T/C [17]: 2.68%; viability, T/C [18]: 2.88%; viability, T/C [19]: 0.27%; viability, T/C [20]: 0.17%; viability, T/C [21]: 0.15%; viability, T/C [22]: 0.08%; viability, T/C [23]: 0.09%; viability, T/C [24]: 0.58%; viability, T/C [25]: 0.58%; viability, T/C [26]: 0.6%; viability, T/C [27]: 0.55%; viability, T/C [28]: 0.47%; viability, T/C [29]: 0.47%; viability, T/C [30]: 0.86%
COc1cc(C)[nH]c(=O)c1CN1CCc2c(Cl)cc(C(OC)C3COC3)c(Cl)c2C1=O (stereo not given) + COc1cc2c(cc1O)CCNC21CSC2c3c(OC(C)=O)c(C)c4c(c3C(COC1=O)N1C(O)C3Cc5cc(C)c(OC)c(O)c5C(C21)N3C)OCO4	> 10000	> 10000	362	< 31.6	< 31.6	104	104	100	99.2	86.5	92.5	98.4	93.9	98.7	95.1	87	74.2	68	48.1	60.5	viability, T/C [16]: 40.5%; viability, T/C [17]: 30.2%; viability, T/C [18]: 23.1%; viability, T/C [19]: 0.53%; viability, T/C [20]: 0.46%; viability, T/C [21]: 1.6%; viability, T/C [22]: 0.35%; viability, T/C [23]: 0.31%; viability, T/C [24]: 0.31%; viability, T/C [25]: 0.35%; viability, T/C [26]: 0.38%; viability, T/C [27]: 0.36%; viability, T/C [28]: 0.31%; viability, T/C [29]: 0.29%; viability, T/C [30]: 0.35%
Cc1cc(C)c(CNC(=O)c2cc(-c3ccc(CN4CCOCC4)cc3)cc3c2cnn3C2CCCC2)c(=O)[nH]1 + COc1cc2c(cc1O)CCNC21CSC2c3c(OC(C)=O)c(C)c4c(c3C(COC1=O)N1C(O)C3Cc5cc(C)c(OC)c(O)c5C(C21)N3C)OCO4	> 10000	> 10000	< 31.6	< 31.6	< 31.6	81.9	97.4	97.5	102	85.7	61.4	84.3	87.3	92.9	88.2	81.9	64.3	44.9	40	59.9	viability, T/C [16]: 39.5%; viability, T/C [17]: 34.4%; viability, T/C [18]: 25.5%; viability, T/C [19]: 0.31%; viability, T/C [20]: 0.35%; viability, T/C [21]: 0.34%; viability, T/C [22]: 0.33%; viability, T/C [23]: 0.21%; viability, T/C [24]: 0.26%; viability, T/C [25]: 0.3%; viability, T/C [26]: 0.32%; viability, T/C [27]: 0.3%; viability, T/C [28]: 0.25%; viability, T/C [29]: 0.25%; viability, T/C [30]: 0.26%
[2H]c1nc(C)nc([2H])c1-c1cc(NC[C@@H](C)c2cccc3c(C(=O)NC)ccnc23)ncn1 + COc1cc2c(cc1O)CCNC21CSC2c3c(OC(C)=O)c(C)c4c(c3C(COC1=O)N1C(O)C3Cc5cc(C)c(OC)c(O)c5C(C21)N3C)OCO4	> 10000	> 10000	72.7	< 31.6	< 31.6	91.2	106	100	101	90.8	92.1	89.7	90.1	92.3	91.5	83.1	82.5	51	54.6	43.2	viability, T/C [16]: 40.4%; viability, T/C [17]: 50.2%; viability, T/C [18]: 41.5%; viability, T/C [19]: 0.44%; viability, T/C [20]: 0.45%; viability, T/C [21]: 1.41%; viability, T/C [22]: 0.35%; viability, T/C [23]: 0.23%; viability, T/C [24]: 0.31%; viability, T/C [25]: 0.18%; viability, T/C [26]: 0.2%; viability, T/C [27]: 0.14%; viability, T/C [28]: 0.12%; viability, T/C [29]: 0.13%; viability, T/C [30]: 0.25%
